Patent US11690851B2, “Methods and compositions comprising ursolic acid and/or resveratrol for treating diabetes, or cancer” (priority 2014, dated 2023)

Key:
[1] = tested on: L6 myotubes; experiment: cellular glucose uptake ([3H]-2DG); type: cell-based; settings: Ins 100 nM, Met 1 mM, UA 10 uM, RES 100 uM
Method: L6 myotubes were incubated with UA (10 μM) at different time points.

[2] = tested on: AMPK; experiment: AMPK phosphorylation in L6 myotubes; type: cell-based; settings: 30 min, UA 10 μM, RES 100 μM, alone or combined
Method: (§1) L6 myotubes were incubated with UA (10 μM) at different time points. Ursolic acid induced Akt phosphorylation by 1.8, 1.7, and 1.8 fold increase at 30, 45, and 60 min. […] Treatment of L6 myotubes with UA (10 μM) or RES (100 μM) for 30 min increased AMPK phosphorylation by 1.7 and 5.3 fold, respectively.

[3] = tested on: SENCAR mice; experiment: TPA-induced epidermal proliferation (BrdU IHC) in mouse skin; type: in vivo
Method: (§2) Animals and treatment: Female SENCAR mice, 6-7 weeks old, were purchased from NCI Frederick (Frederick, Md.). The dorsal skin of SENCAR mice were shaved and treated topically twice per week for 2 weeks with 200 μL acetone vehicle or 1-3 μmol UA, 1-3 μmol RES, or an equimolar combination of RES and UA. Each treatment was followed 30 minutes later with topical application of 200 μL acetone vehicle or 1-2 μg of the tumor promoter TPA. In vivo sample collection: Animals were sacrificed 6 hr after the final TPA treatment for Western blotting and 48 hr after the final TPA treatment for histology. For immunohistochemical (IHC) analysis of epidermal proliferation five mice per group were i.p. injected with 100 mg/kg Bromodeoxyuridine (BrdU) in PBS 30 min prior to sacrifice. 1 cm^2 of mouse skin from treated areas was fixed in formalin and paraffin embedded to be analyzed via IHC. Immunohistochemistry (IHC): Slides were immunostained with anti-BrdU antibody. The percentage of BrdU-positive cells in the basal cell layer was determined from at least 10 randomly selected sites per slide (5 mice/group). In addition, the epidermal thickness of each skin sample was also measured at 10 random sites for 5 mice/group, using Image Pro-Discovery from Media Cybernetics (Bethesda, Md.).

[4] = tested on: NFKB; experiment: Luciferase assay for NFKB activity in HaCaT cells; type: cell-based, human
Method: Luciferase assay for NFKB activity: HaCaT cells were transfected with the NFKB Cignal Reporter Assay Kit from Qiagen, using Attractene transfection reagent, per manufacturer's instructions. Cells were plated at 1.5×10^4 cells/well in 96 well plates during the transfection. After 16 hr transfection, cells were resupplied with OptiMEM containing 0.5% FBS, 1% non-essential amino acids, 50 U/ml penicillin, and […] for 24 hr. Cells were pretreated with various doses of RES or vehicle for 1 hr, followed by UA or vehicle for 1 hr. TNFα at 10 ng/ml was added and cells were incubated for 4 hr. Luminescence of both the TNFα-induced firefly luciferase and the transfection control Renilla luciferase were measured using the Dual-Luciferase Reporter Assay System from Promega and quantified using a Biotek Synergy HT spectrophotometer.

[5] = tested on: SENCAR mice; experiment: TPA-mediated epidermal thickening (hyperplasia) in mouse skin; type: in vivo; settings: for 2 μg TPA-mediated epidermal thickening: topical 1, 2, or 3 μmol total dose, single agent
Method: as §2

[6] = tested on: Ca3/7 mouse squamous carcinoma cells; experiment: MTT assay for cell viability, Ca3/7; type: cell-based; settings: Ca3/7 cells, 200 μM RES
Method: MTT assay for cell viability: Cells were plated at 1.5×10^4 cells/well on 96-well plates. Cells were pretreated with RES or 0.1% vehicle for 1 hr followed by various doses of UA or 0.1% DMSO vehicle for 24 hr. In the experiment with A549 cells, 5.0×10^3 cells/well were plated, and cells were treated with UA or 0.1% DMSO for 48 hr after 1 hr pretreatment with RES or vehicle. MTT reagent (0.5 mg/ml) was added, and cells were incubated for an additional 2.5 hr. Media was removed and formazan crystals were dissolved with 100 μl DMSO. Plates were measured at 570 nm with background subtraction at 650 nm, using a Biotek Synergy HT spectrophotometer. Statistical Analyses: Differences between individual groups were determined by ANOVA. IC50 values were calculated with GraphPad Prism. Resistance Reversal (RR) was calculated by dividing the IC50 value of the UA+vehicle group by the IC50 value of the UA+RES group.

[7] = tested on: NFKB subunit p65; experiment: TNFα-mediated p65 phosphorylation in HaCaT keratinocytes, Western blot; type: cell-based, human; settings: preliminary experiments, RES 100 and 200 μM, UA 10 and 20 μM, single agents
Method: Western blotting: HaCaT cells were treated with sub-optimal doses of RES, UA, or RES+UA and stimulated with 10 ng/ml human tumor necrosis factor alpha (TNFα) for 30 min. Cells were scraped into lysis buffer containing 1% Triton X-100, 0.5% IGEPAL, 0.05 M TrisHCl and 0.1 M NaCl as well as protease/phosphatase inhibitors and 5 mM EDT A. For in vivo studies, whole skin was placed on glass over ice and epidermis was removed by scraping and placed in RIPA buffer with protease/phosphatase inhibitors. Lysates were homogenized and proteins were extracted by centrifugation. Twenty micrograms of protein was separated on Bis-Tris gels and transferred onto PVDF membranes. Membranes were blocked in 5% dry milk or BSA and incubated with primary antibodies overnight at 4° C. Membranes were incubated with corresponding HRP-conjugated secondary antibodies for one hour and developed.
As mentioned before, NFKB activity is important during the tumor promotion phase.

[8] = tested on: Akt substrate 160 (AS160); experiment: AS160 phosphorylation in L6 myotubes; type: cell-based; settings: UA 10 μM
Method: as §1

[9] = tested on: Akt; experiment: Akt phosphorylation in L6 myotubes; type: cell-based; settings: UA 10 μM
Method: as §1

[10] = 1-3 μmol doses, assayed 48 hr after the final TPA treatment

Compound | Mean [3H]-2DG per Min per Protein [ ] [1] | Mean [3H]-DPM corrected for CYTO B [1] | fold change from DMSO [1] | AMPK phosphorylation increase [2] | 2 μg TPA-induced epidermal proliferation [3, 10] | 2 μg TPA-mediated epidermal thickening [5] | TNFα-induced NFKB activity (phosphorylation of p65) [7] | also measured
CN(C)C(=N)N=C(N)N [Met, Metformin, reference compound] | 232.19 pmol/mg/min | 19718.32 DPM/mg | 1.94 fold |  |  |  |  | 
Oc1ccc(C=Cc2cc(O)cc(O)c2)cc1 [RES, resveratrol] | 244.97 pmol/mg/min | 37819.44 DPM/mg | 2.05 fold | 5.3 fold | limited effect | no effect | moderate effect | NFKB activity (luciferase reporter) ([4]; RES alone 100 and 200 μM): partially inhibited; effect of 1 μg TPA on epidermal thickening ([5]; 2 and 3 μmol doses of RES alone): no effect; UA-mediated growth suppression with RES [6]: increases the sensitivity
C[C@H]1[C@H](C)CC[C@]2(C(=O)O)CC[C@]3(C)C(=CC[C@@H]4[C@@]5(C)CC[C@H](O)C(C)(C)[C@@H]5CC[C@]43C)[C@H]12 [UA, Ursolic acid] | 257.35 pmol/mg/min | 21855.37 DPM/mg | 2.15 fold | 1.7 fold | limited effect | dose-dependently reversed | moderate effect | AS160 phosphorylation increase ([8]; 15 min): 1.3 fold; AS160 phosphorylation increase ([8]; 30 min): 2.5 fold; AS160 phosphorylation increase ([8]; 45 min): 1.6 fold; AS160 phosphorylation increase ([8]; 60 min): 2.3 fold; 2 μg TPA-induced epidermal proliferation ([3]; 3 μmol of UA alone): significantly decreased; 1 μg TPA-induced epidermal proliferation ([3]; UA alone, 1-3 μmol): dose-dependently decreased; Akt phosphorylation fold increase ([9]; 30 min): 1.8 fold; Akt phosphorylation fold increase ([9]; 45 min): 1.7 fold; Akt phosphorylation fold increase ([9]; 60 min): 1.8 fold; TNFα-stimulated NFKB activity (luciferase reporter) ([4]; UA alone): dose-dependently decreases; effect of 1 μg TPA on epidermal thickening ([5]; UA alone, 1-3 μmol): dose-dependently decreased
